These are literature values, as cited in article PMC10177510, “A Multicenter, Open-Label, Phase I/II Study of FN-1501 in Patients with Advanced Solid Tumors” (Cancers, 2023).

The data set relates to MV-4-11. Particulars: cited from earlier work.

Each structure is given as a SMILES string. Converted amounts (≈) assume the structure as drawn.

In general, IC50 refers to the midpoint of a concentration-inhibition curve. For the compound `CCc1nc(C(N)=O)c(Nc2ccc(N3CCC(N4CCN(C)CC4)CC3)c(OC)c2)nc1NC1CCOCC1` [gilteritinib, reference compound], the half-maximal inhibitory concentration (IC50) is 0.5 ng/mL (≈ 0.905 nM).
